Patent publication US10570179B2, “Substituted urea depsipeptide analogs as activators of the CLPP endopeptidase” (priority 2016, dated 2020)
Values after ≈ are worked out from the molar mass of the structure shown. Where two headings read alike, the source gives them in different places. Numbered stars: 1 amine (or outer) side, 2 acyl side, 3 side chain; on linkers, the order of the positions; unused ones are H or OH. Bridge positions count the residues as written; N and C are the ends. Square brackets hold non-standard residues; d marks the D form. Peptide text beside a SMILES is read from it. * marks the point of attachment. ξ: configuration not given here. Phe(3-Me) = Cc1cccc(C[C@H](N)C(=O)O)c1; NH(4-Cl-2-F-phenyl) = Fc1cc(Cl)ccc1N*; Pro(4R-Me) = C[C@H]1CN[C@H](C(=O)O)C1; NH(4-Me-phenyl) = Cc1ccc(N*)cc1; ξNMeThr = CNC(C(=O)O)[C@@H](C)O; aThr = C[C@H](O)[C@H](N)C(=O)O; Pip = O=C(O)[C@@H]1CCCCN1; CO = O=C([*:1])[*:2]

Legend:
Plasma pharmacokinetics = assay type: in vivo, male BALB/c mice; details: for Vd: read-out: Vss
[1] = Microsomal metabolic stability; assay type: in vitro ADME, human
[2] = Plasma protein binding, rapid equilibrium dialysis; assay type: in vitro ADME, human; details: 10 μM
Procedure, shortened: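 Compound spiked at 10 μM (0.1% DMSO) into human plasma, dialysed against DPBS pH 7.4 across 8 K MWCO RED membrane for 4 h at 37 °C with shaking. Both chambers quantified by LC-MS against warfarin internal standard; % free = buffer/plasma concentration ×100, % bound = 100 − % free.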

B. subtilis = assay: Minimal inhibitory concentration, microbroth dilution; assay type: cell-based; details: Bacillus subtilis, read-out: Minimal Inhibitory Concentrations (μM) B. subtilis
Procedure, shortened: (§1)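 MIC is recorded by eye as the lowest drug concentration that stops bacterial growth. Compound is serially diluted twofold in broth, starting at 200 μM final, and bacteria are added at roughly 10^5 cfu/mL. Incubation runs overnight at 37 °C under aerobic conditions, per CLSI guidance.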

S. pyogenes = assay: as above; assay type: cell-based; details: Streptococcus pyogenes, read-out: Minimal Inhibitory Concentrations (μM) S. pyogenes
Procedure, shortened: as §1

S. pneumoniae = assay: as above; assay type: cell-based; details: Streptococcus pneumoniae; MIC; read-out: Minimal Inhibitory Concentrations (μM) S. pneumoniae
Procedure, shortened: as §1

[3] = male, BALB/c, mouse, in vivo, iv, 10 mg/kg, Route i.v.
[4] = male, BALB/c, mouse, in vivo, iv

## Cc1ccc(NC(=O)N[C@@H](Cc2cccc(C)c2)C(=O)N[C@@H]2C(=O)N3CCC[C@H]3C(=O)N3CCCC[C@H]3C(=O)N[C@@H](C)C(=O)N3C[C@H](C)C[C@H]3C(=O)O[C@H]2C)cc1 [Compound 1, (S)-3-(M-TOLYL)-2-(3-(P-TOLYL)UREIDO)-N-((2R,6S,8AS,14AS,20S,21S,23AS)-2,6,21-TRIMETHYL-5,8,14,19,23-PENTAOXOOCTADECAHYDRO-1H,5H,14H,19H-PYRIDO[2,1-I]DIPYRROLO[2,1-C:2′,1′-L][1]OXA[4,7,10,13]TETRAAZACYCLOHEXADECIN-20-YL)PROPANAMIDE] ({NH(4-Me-phenyl)-CO}-[Phe(3-Me)][aThr]P[Pip]A[Pro(4R-Me)]; ester 2-C)
Plasma pharmacokinetics; Route i.v.
  C^0: 26862.75 ng/mL
Plasma pharmacokinetics; male, BALB/c, mouse, in vivo, iv, 10 mg/kg, Route i.v., read-out: AUCinf
  AUC(0-inf): 7620 ng·h/mL
Plasma pharmacokinetics; male, BALB/c, mouse, in vivo, iv, 10 mg/kg, Route i.v., read-out: AUClast
  AUC(0-t): 7590 ng·h/mL
Plasma pharmacokinetics; male, BALB/c, mouse, in vivo, iv, 10 mg/kg, Route i.v., read-out: CL
  clearance: 21.9 mL/min/kg
Plasma pharmacokinetics; male, BALB/c, mouse, in vivo, iv, 10 mg/kg, Route i.v., read-out: T1/2 (converted)
  half-life: 0.49 h
Plasma pharmacokinetics; [3]
  Vd: 0.74 L/kg
[1]; microsomal metabolic stability half-life, human liver microsomes
  Human – 11.45 h
[2]; plasma binding, % Bound, human plasma
  Human – 98.5%
B. subtilis
  MIC: 0.313 µM (≈ 0.246 µg/mL)
S. pyogenes
  MIC: 0.313 µM (≈ 0.246 µg/mL)

## Cc1cccc(C[C@H](NC(=O)Nc2ccc(Cl)cc2F)C(=O)N[C@@H]2C(=O)N3CCC[C@H]3C(=O)N3CCCC[C@H]3C(=O)N[C@@H](C)C(=O)N3C[C@H](C)C[C@H]3C(=O)O[C@H]2C)c1 [Compound 3, (S)-2-(3-(4-CHLORO-2-FLUOROPHENYL)UREIDO)-3-(M-TOLYL)-N-((2R,6S,8AS,14AS,20S,21S,23AS)-2,6,21-TRIMETHYL-5,8,14,19,23-PENTAOXOOCTADECAHYDRO-1H,5H,14H,19H-PYRIDO[2,1-I]DIPYRROLO[2,1-C:2′,1′-L][1]OXA[4,7,10,13]TETRAAZACYCLOHEXADECIN-20-YL)PROPANAMIDE] ({NH(4-Cl-2-F-phenyl)-CO}-[Phe(3-Me)][aThr]P[Pip]A[Pro(4R-Me)]; ester 2-C)
Plasma pharmacokinetics; [4]
  AUC(0-inf): 12600 ng·h/mL
  AUC(0-t): 12500 ng·h/mL
  C^0: 13482.56 ng/mL
  clearance: 13.3 mL/min/kg
  half-life: 3.4 h
Plasma pharmacokinetics; [3]
  Vd: 2.08 L/kg
[1]; human, pH 7.4
  Human – 4.68 ± 0.78 h
[2]; human, 4 h, pH 7.4
  Human – 99.0 ± 0.1%
B. subtilis; MIC
  MIC: 0.078 µM (≈ 0.0643 µg/mL)
S. pyogenes; MIC
  MIC: 0.313 µM (≈ 0.258 µg/mL)

## Cc1cccc(C[C@H](NC(=O)Nc2ccc(Cl)cc2F)C(=O)N[C@@H]2C(=O)N3CCC[C@H]3C(=O)N(C)C([C@@H](C)O)C(=O)N[C@@H](C)C(=O)N3C[C@H](C)C[C@H]3C(=O)O[C@H]2C)c1 (stereo partly drawn) [Compound 5] ({NH(4-Cl-2-F-phenyl)-CO}-[Phe(3-Me)][aThr]P[ξNMeThr]A[Pro(4R-Me)]; ester 2-C)
[1]; human, pH 7.4
  Human – 0.31 ± 0.03 h
[2]; human, 4 h, pH 7.4
  Human – 98.0 ± 1.0%
S. pneumoniae
  MIC: 0.039 µM (≈ 0.0323 µg/mL)
B. subtilis; MIC
  MIC: 0.156 µM (≈ 0.129 µg/mL)
S. pyogenes; MIC
  MIC: 0.078 µM (≈ 0.0646 µg/mL)

## Cc1cccc(C[C@H](NC(=O)Nc2ccc(Cl)cc2F)C(=O)N[C@H]2COC(=O)[C@@H]3C[C@@H](C)CN3C(=O)[C@H](C)NC(=O)[C@@H]3CCCCN3C(=O)[C@@H]3CCCN3C2=O)c1 [Compound 8, (S)-2-(3-(4-CHLORO-2-FLUOROPHENYL)UREIDO)-N-((2R,6S,8AS,14AS,20S,23AS)-2,6-DIMETHYL-5,8,14,19,23-PENTAOXOOCTADECAHYDRO-1H,5H,14H,19H-PYRIDO[2,1-I]DIPYRROLO[2,1-C:2′,1′-L][1]OXA[4,7,10,13]TETRAAZACYCLOHEXADECIN-20-YL)-3-(M-TOLYL)PROPANAMIDE]
[1]; human, pH 7.4
  Human – 0.89 ± 0.13 h
[2]; human, 4 h, pH 7.4
  Human – 98.2 ± 0.2%
S. pneumoniae
  MIC: 0.078 µM (≈ 0.0632 µg/mL)
B. subtilis; MIC
  MIC: 0.156 µM (≈ 0.126 µg/mL)
S. pyogenes; MIC
  MIC: 0.156 µM (≈ 0.126 µg/mL)

## Cc1cccc(C[C@H](NC(=O)Nc2ccc(Cl)cc2F)C(=O)N[C@H]2COC(=O)[C@@H]3C[C@@H](C)CN3C(=O)[C@H](C)NC(=O)[C@@H]3CCCCN3C(=O)[C@@H]3C[C@@H](O)CN3C2=O)c1 [Compound 10]
[1]; human, pH 7.4
  Human – 0.29 ± 0.04 h
[2]; human, 4 h, pH 7.4
  Human – 99.7 ± 0.2%
S. pneumoniae
  MIC: 0.078 µM (≈ 0.0645 µg/mL)
B. subtilis; MIC
  MIC: 0.313 µM (≈ 0.259 µg/mL)
S. pyogenes; MIC
  MIC: 0.156 µM (≈ 0.129 µg/mL)
